We go through 17 molecules from patent publication US9018388B2, “Pesticidal compositions and processes related thereto” (Dow AgroSciences LLC, priority 2012, dated 2015).

Experiment [1] relates to Beet Armyworm (BAW) (Spodoptera exigua). The experiment can be described thus: Bioassay on beet armyworm (BAW), 128-well diet tray assay. The experiment is classed as in vivo. Particulars: Spodoptera exigua; Beet armyworm, 50 μg/cm^2; read-out: % Mortality BAW 50 μg/cm^2. The essentials: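 Second-instar Spodoptera exigua larvae, one to five per well, on artificial diet treated with 50 μg/cm^2 compound in 90:10 acetone-water and dried, eight wells per compound. Held at 25 °C, 14:10 light-dark for five to seven days; percent mortality averaged over wells.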

Experiment [2] deals with Corn Earworm (CEW) (Helicoverpa zea). In words: Bioassay on corn earworm (CEW), 128-well diet tray assay. In kind it is in vivo. Particulars: Helicoverpa zea; Corn earworm, 50 μg/cm^2; read-out: % Mortality CEW 50 μg/cm^2. The essentials: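 Second-instar Helicoverpa zea larvae (one to five per well) placed on artificial diet treated with 50 μg/cm^2 compound in 90:10 acetone-water, dried, eight wells per compound. Held at 25 °C, 14:10 light-dark, five to seven days; percent mortality averaged over wells.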

SMILES strings stand for the structures.

`COc1ccccc1N1CCCS/C1=N\N=C\c1ccc(-c2ncn(-c3ccc(OC(F)(F)F)cc3)n2)cc1` [Compound 191C]: the pest or weed control at 50 µg/cm2, 50 µg/cm2 in experiment [1] and in experiment [2] was 50 to 100% throughout.
As to `Cc1cccc(Cl)c1N1CCCS/C1=N\N=C\c1ccc(-c2ncn(-c3ccc(OC(F)(F)F)cc3)n2)cc1` [Compound 196C], the pest or weed control at 50 µg/cm2, 50 µg/cm2 in experiment [1] and in experiment [2] was 50 to 100% in each case.
As to `CC(C)=Cc1ccccc1N1CCCS/C1=N\N=C\c1ccc(-c2ncn(-c3ccc(OC(F)(F)F)cc3)n2)cc1` [Compound 197C], the pest or weed control at 50 µg/cm2, 50 µg/cm2 in experiment [1] and in experiment [2] was 50 to 100% in each case.
On to `Cc1cccnc1N1CCCS/C1=N\N=C\c1ccc(-c2ncn(-c3ccc(OC(F)(F)F)cc3)n2)cc1` [Compound 198C], for which the pest or weed control at 50 µg/cm2, 50 µg/cm2 in experiment [1] and in experiment [2] was 50 to 100% each time.
Consider `FC(F)(F)Oc1ccc(-n2cnc(-c3ccc(/C=N/N=C4\SCCCN4c4ccccc4OC(F)(F)F)cc3)n2)cc1` [Compound 199C], for which the pest or weed control at 50 µg/cm2, 50 µg/cm2 in experiment [1] and in experiment [2] was 50 to 100% in each case.
Regarding `FC(F)Oc1ccccc1N1CCCS/C1=N\N=C\c1ccc(-c2ncn(-c3ccc(OC(F)(F)F)cc3)n2)cc1` [Compound 200C], the pest or weed control at 50 µg/cm2, 50 µg/cm2 in experiment [1] and in experiment [2] was 50 to 100% throughout.
Turning to `COc1cccc(N2CCCS/C2=N\N=C\c2ccc(-c3ncn(-c4ccc(OC(F)(F)F)cc4)n3)cc2)c1` [Compound 206C], the pest or weed control at 50 µg/cm2, 50 µg/cm2 in experiment [1] and in experiment [2] was 50 to 100% in each case.
As to `CCOc1ccccc1N1CCCS/C1=N\N=C\c1ccc(-c2ncn(-c3ccc(OC(F)(F)F)cc3)n2)cc1` [Compound 208C], the pest or weed control at 50 µg/cm2, 50 µg/cm2 in experiment [1] and in experiment [2] was 50 to 100% each time.
On to `CC(C)(C)c1ccccc1N1CCCS/C1=N\N=C\c1ccc(-c2ncn(-c3ccc(OC(F)(F)F)cc3)n2)cc1` [Compound 210C], for which the pest or weed control at 50 µg/cm2, 50 µg/cm2 in experiment [1] and in experiment [2] was 50 to 100% each time.
Consider `Cc1cccc(C)c1N1CCCCS/C1=N\N=C\c1ccc(-c2ncn(-c3ccc(OC(F)(F)F)cc3)n2)cc1` [Compound 211C], for which the pest or weed control at 50 µg/cm2, 50 µg/cm2 in experiment [1] and in experiment [2] was 50 to 100% throughout.
Consider `CC(C)c1ccccc1N1CCCCS/C1=N\N=C\c1ccc(-c2ncn(-c3ccc(OC(F)(F)F)cc3)n2)cc1` [Compound 212C], for which the pest or weed control at 50 µg/cm2, 50 µg/cm2 in experiment [1] and in experiment [2] was 50 to 100% throughout.
Regarding `CC1CS/C(=N\N=C\c2ccc(-c3ncn(-c4ccc(OC(F)(F)F)cc4)n3)cc2)N(c2ccccc2OC(F)(F)F)C1` (stereo not shown) [Compound 214C], the pest or weed control at 50 µg/cm2, 50 µg/cm2 in experiment [1] and in experiment [2] was 50 to 100% in each case.
Consider `CC1CS/C(=N\N=C\c2ccc(-c3ncn(-c4ccc(OC(F)(F)F)cc4)n3)cc2)N(c2c(Cl)cccc2C(F)(F)F)C1` (stereo not shown) [Compound 215C], for which the pest or weed control at 50 µg/cm2, 50 µg/cm2 in experiment [1] and in experiment [2] was 50 to 100% in each case.
Consider `CC1CCS/C(=N\N=C\c2ccc(-c3ncn(-c4ccc(OC(F)(F)F)cc4)n3)cc2)N1c1ccccc1OC(F)(F)F` (stereo not shown) [Compound 216C], for which the pest or weed control at 50 µg/cm2, 50 µg/cm2 in experiment [1] and in experiment [2] was 50 to 100% in each case.
On to `CC1CCS/C(=N\N=C\c2ccc(-c3ncn(-c4ccc(OC(F)(F)F)cc4)n3)cc2)N1c1c(Cl)cccc1C(F)(F)F` (stereo not shown) [Compound 217C], for which the pest or weed control at 50 µg/cm2, 50 µg/cm2 in experiment [1] and in experiment [2] was 50 to 100% each time.
On to `Cc1cc(C)c(N2/C(=N/N=C/c3ccc(-c4ncn(-c5ccc(OC(F)(F)F)cc5)n4)cc3)SCCC2C)c(C)c1` (stereo not shown) [Compound 218C], for which the pest or weed control at 50 µg/cm2, 50 µg/cm2 in experiment [1] and in experiment [2] was 50 to 100% throughout.
Take `COc1ccc(N2/C(=N/N=C/c3ccc(-c4ncn(-c5ccc(OC(F)(F)F)cc5)n4)cc3)SCCC2C)c(C)c1` (stereo not shown) [Compound 219C]: the pest or weed control at 50 µg/cm2, 50 µg/cm2 in experiment [1] and in experiment [2] was 50 to 100% each time.
